Values quoted from earlier work as cited in patent publication US20060205656A1 (priority 1999, published 2006).

Conditions: in vivo

## contulakin-G
  potency in inhibiting pain relative to neurotensin: significantly more potent than neurotensin
